The values that follow come from patent US20260008818A1, “CYCLIC PEPTIDE OR SALT THEREOF, AND USES THEREOF” (FUJIFILM Corporation, priority 2023, published 2026).

Bridge positions count the residues as written; N and C are the ends. Ends that are not written are not given here. COCH2 = acetyl group that carries the bridge

The subject of the experiment is Recombinant Human FGFR1 alpha (IIIc) Fc Chimera Protein. Nature of the experiment: Binding affinity of enzymatically synthesized cyclic peptide to FGFR by ELISA. To be noted: luminescence signal at reaction concentration 10 nmol/L, SEQ ID NO: 39 standardized to 1, enzyme synthesis product. The protocol: The binding affinity of the cyclic peptide to FGFR was evaluated using an ELISA method.
The binding affinity of the enzymatically synthesized cyclic peptide to FGFR was measured by evaluating the amount of the cyclic peptide bound to FGFR by ELISA.
First, 5 ng of Recombinant Human FGFR1 alpha (IIIc) Fc Chimera Protein CF (R&D systems, 658-FR-050) was immobilized in each well of a 96-well plate, and blocked with Pierce Protein-Free (PBS) Blocking Buffer (Thermo, 37572), and a cyclic peptide diluted with Can Get Signal Immunoreaction Enhancer Solution I (TOYOBO, NKB-101) was then added and reacted at room temperature for 3 hours. After washing with 0.05% Tween 20-containing phosphate buffered saline (PBS), an anti-Myc antibody (Cell Signaling, 14038S) diluted with Can Get Signal Immunoreaction Enhancer Solution II (TOYOBO, NKB-101) was added and reacted at room temperature for 2 hours. After washing with 0.05% Tween 20-containing PBS, SuperSignal ELISA Femto Substrate (Thermo, 37075) was added, and the luminescence amount was measured. The dose-response relationship was calculated from using the difference between the luminescence amount in the well in which FGFR was immobilized and the luminescence amount in the well in which FGFR was not immobilized, and the concentration of the cyclic peptide at the time of reaction, and the binding affinity to FGFR was evaluated according to the following evaluation criteria. The evaluation result preferably satisfies the evaluation criteria A, B, or C.
In a case where a value of a luminescence signal emitted by the cyclic peptide set forth in SEQ ID NO: 39 at a reaction concentration of 10 nmol/L is standardized to 1, evaluation criteria of the luminescence signal value emitted by the cyclic peptide at a reaction concentration of 10 nmol/L is as follows. • A: 0.7 or more • B: 0.5 or more and less than 0.7 • C: 0.1 or more and less than 0.5 • D: less than 0.1.

Take “291 (HCSYERLQFHGHEAKFRVK(COCH2)V; thioether 2-19 (inferred)) [compound 291]”: the “Evaluation result of binding affinity to FGFR” value (from here on “Evaluation result”) is “C (0.1 or more and less than 0.5)”.

Turning to “364 (WCQLRFQGHLAPFIIK(COCH2)S; thioether 2-16) [compound 364]”, the “Evaluation result” value was “C (0.1 or more and less than 0.5)”. Next, “245 (WCQYVYLSHVAPFLVRK(COCH2)E; thioether 2-17 (inferred)) [compound 245]”: “C (0.1 or more and less than 0.5)”. Next, “301 (HCSYERLMFHGHEAPFRVK(COCH2)V; thioether 2-19 (inferred)) [compound 301]”: “A (0.7 or more)”; “311 (RCTWERLIFLGHIAPFWVK(COCH2)R; thioether 2-19 (inferred)) [compound 311]”: “C (0.1 or more and less than 0.5)”.

As for “67 (GCSYERLQFHGHEAPFRVK(COCH2)V; thioether 2-19 (inferred)) [compound 67]”, the “Evaluation result” value was “A (0.7 or more)”. Next, “363 (TCSILKHPWGAPFLVK(COCH2)T; thioether 2-16) [compound 363]”: “C (0.1 or more and less than 0.5)”; “90 (HCNYERLQFHGHEAPFRVKV; not fully specified; Description of Artificial Sequence: Cyclic peptide) [compound 90]”: “A (0.7 or more)”; “300 (HCSYERMQFHGHEAPFRVK(COCH2)V; thioether 2-19 (inferred)) [compound 300]”: “A (0.7 or more)”. For the substance “173 (HCSYERLQFTGHEAPFRVK(COCH2)V; thioether 2-19 (inferred)) [compound 173]”, the “Evaluation result” value is “C (0.1 or more and less than 0.5)”. Next, “257 (VCPLTLQGWQAPFWVVK(COCH2)E; thioether 2-17 (inferred)) [compound 257]”: “C (0.1 or more and less than 0.5)”. Next, “103 (HCSTERLQFHGHEAPFRVK(COCH2)V; thioether 2-19 (inferred)) [compound 103]”: “A (0.7 or more)”; “48 (HCKVQQLWLQGHYAPYWVK(COCH2)S; thioether 2-19 (inferred)) [compound 48]”: “C (0.1 or more and less than 0.5)”. Next, “294 (HCSYERLQFHGHEAPFRVK(COCH2)K; thioether 2-19 (inferred)) [compound 294]”: “A (0.7 or more)”; “53 (SCWYQPEWLGHHLPYLVK(COCH2)W; thioether 2-18 (inferred)) [compound 53]”: “C (0.1 or more and less than 0.5)”. Consider “223 (HCSYERLQFHGHEAPFRVK(COCH2)H; thioether 2-19 (inferred)) [compound 223]”, for which the “Evaluation result” value is reported as “A (0.7 or more)”. In the case of “38 (WCQLVWQGHKAPYLTLK(COCH2)L; thioether 2-17) [compound 38]”, the “Evaluation result” value is “B (0.5 or more and less than 0.7)”. As for “185 (HCSYERLQFHGHQAPFRVK(COCH2)V; thioether 2-19 via Ac) [compound 185]”, the “Evaluation result” value is reported as “A (0.7 or more)”.

For “269 (VCYEQLVVWGHIAPFLTK(COCH2)H; thioether 2-18 (inferred)) [compound 269]”, the “Evaluation result” value is “C (0.1 or more and less than 0.5)”. Next, “109 (HCSYERLQFHSHEAPFRVK(COCH2)V; thioether 2-19 (inferred)) [compound 109]”: “C (0.1 or more and less than 0.5)”; “327 (HCSYERLIFHGHEAPFWVK(COCH2)V; thioether 2-19 (inferred)) [compound 327]”: “A (0.7 or more)”; “43 (SCWQQLVWFQFEAPFLVK(COCH2)V; thioether 2-18 (inferred)) [compound 43]”: “C (0.1 or more and less than 0.5)”.

As for “317 (HCTWERLRFLGHIAPFWVK(COCH2)R; thioether 2-19 (inferred)) [compound 317]”, the “Evaluation result” value was “C (0.1 or more and less than 0.5)”. Regarding “157 (HCSYERLHFHGHEAPFRVK(COCH2)V; thioether 2-19 (inferred)) [compound 157]”, the “Evaluation result” value was “A (0.7 or more)”. Next, “275 (WCIRRLYSPWGHVAPFWVK(COCH2)P; thioether 2-19 (inferred)) [compound 275]”: “B (0.5 or more and less than 0.7)”; “293 (HCSYERLQFHGHEAPFRKK(COCH2)V; thioether 2-19 (inferred)) [compound 293]”: “C (0.1 or more and less than 0.5)”; “148 (HCSYERLVFHGHEAPFRVK(COCH2)V; thioether 2-19 (inferred)) [compound 148]”: “A (0.7 or more)”. To “270 (QCYVQLYVWGHPAPFYWDK(COCH2)T; thioether 2-19 (inferred)) [compound 270]” belongs “C (0.1 or more and less than 0.5)”; to “259 (GCRPVVTHHPWAPFWVVTK(COCH2)E; thioether 2-19 (inferred)) [compound 259]”, “B (0.5 or more and less than 0.7)”; to “106 (HCSYERLQFHWHEAPFRVK(COCH2)V; thioether 2-19 (inferred)) [compound 106]”, “C (0.1 or more and less than 0.5)”.

Turning to “137 (HCSYEILQFHGHEAPFRVK(COCH2)V; thioether 2-19 (inferred)) [compound 137]”, the “Evaluation result” value was “A (0.7 or more)”. Take “162 (HCSYERLQWHGHEAPFRVK(COCH2)V; thioether 2-19 (inferred)) [compound 162]”: the “Evaluation result” value was “B (0.5 or more and less than 0.7)”. As to “207 (HCSYERLQFHGHEAPFRSK(COCH2)V; thioether 2-19 via Ac; not fully specified) [compound 207]”, the “Evaluation result” value was “C (0.1 or more and less than 0.5)”.

With “321 (HCTWERLIFLGHVAPFWVK(COCH2)R; thioether 2-19 (inferred)) [compound 321]”, the “Evaluation result” value is “C (0.1 or more and less than 0.5)”. Next, “199 (HCSYERLQFHGHEAPFSVK(COCH2)V; thioether 2-19 via Ac) [compound 199]”: “B (0.5 or more and less than 0.7)”; “206 (HCSYERLQFHGHEAPFRNK(COCH2)V; thioether 2-19 via Ac; not fully specified) [compound 206]”: “C (0.1 or more and less than 0.5)”; “104 (HCSHERLQFHGHEAPFRVK(COCH2)V; thioether 2-19 (inferred)) [compound 104]”: “C (0.1 or more and less than 0.5)”. Next, “122 (HCSYLRLQFHGHEAPFRVK(COCH2)V; thioether 2-19 (inferred)) [compound 122]”: “C (0.1 or more and less than 0.5)”; “51 (KCWQQLSFVGHIAPFVYK(COCH2)Y; thioether 2-18 (inferred)) [compound 51]”: “B (0.5 or more and less than 0.7)”. Consider “138 (HCSYEVLQFHGHEAPFRVK(COCH2)V; thioether 2-19 (inferred)) [compound 138]”, for which the “Evaluation result” value was “A (0.7 or more)”.

“167 (HCSYERLQFFGHEAPFRVK(COCH2)V; thioether 2-19 (inferred)) [compound 167]”: the “Evaluation result” value is recorded as “A (0.7 or more)”. As to “65 (HCSYERLQFHGHEAPFRAK(COCH2)V; thioether 2-19 (inferred)) [compound 65]”, the “Evaluation result” value was “A (0.7 or more)”. To “71 (VCSYERLQFHGHEAPFRVK(COCH2)V; thioether 2-19 (inferred)) [compound 71]” belongs “A (0.7 or more)”. To “37 (CDRTLLYYRLSK(COCH2); thioether 1-12; not fully specified; printed as (C)-DRTLLYYRLS-(K(acetyl))) [compound 37]” belongs “D (less than 0.1)”; to “299 (HCSYEMLQFHGHEAPFRVK(COCH2)V; thioether 2-19 (inferred)) [compound 299]”, “C (0.1 or more and less than 0.5)”; to “163 (HCSYERLQFGGHEAPFRVK(COCH2)V; thioether 2-19 (inferred)) [compound 163]”, “C (0.1 or more and less than 0.5)”.
